Source: patent US6914045B2, “Glycopeptide antibiotics” (Wyeth Holdings Corporation, priority 2001, dated 2005)
Values after ≈ are worked out from the molar mass of the structure shown.

Tests used:
Experiment in all cases: in vitro antibacterial evaluation, MIC by broth dilution
Format in all cases: cell-based
[1] = tested on: Enterococcus sp.; conditions: broth dilution, 18 hours at 35° C.
In short: (§1)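 Following National Committee for Clinical Laboratory Standards recommendations (M7-A2), susceptibility was measured by dilution in Muller-Hinton II […]. Bacteria were seeded at 5×10^5 CFU/mL against compound concentrations from 64 down to 0.06 μg/mL.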

[2] = tested on: Staphylococcus sp.; conditions: broth dilution, 18 hours at 35° C.; for MIC Staphylococcus aureus (GC 1131): strain GC 1131
In short: as §1

[3] = tested on: Streptococcus sp.; conditions: broth dilution, 18 hours at 35° C.
In short: as §1

[4] = tested on: Escherichia coli; conditions: 18 hours at 35° C.

MIC Enterococcus avium (GC 4558) [1]: 0.5 µg/mL (≈ 0.353 µM)
MIC Enterococcus faecalis (ATCC 29212) [1]: 0.5 µg/mL (≈ 0.353 µM)
MIC Enterococcus faecalis (GC 2242) [1]: 0.5 µg/mL (≈ 0.353 µM)
MIC Enterococcus faecalis (GC 2691) [1]: 0.5 µg/mL (≈ 0.353 µM)
MIC Enterococcus faecalis (GC 3059) [1]: 0.5 µg/mL (≈ 0.353 µM)
MIC Enterococcus faecalis (GC 4552) [1]: 0.5 µg/mL (≈ 0.353 µM)
MIC Enterococcus faecalis (GC 4553) [1]: 0.5 µg/mL (≈ 0.353 µM)
MIC Enterococcus faecalis (GC 4554) [1]: 0.5 µg/mL (≈ 0.353 µM)
MIC Enterococcus faecalis (GC 6189) [1]: 0.5 µg/mL (≈ 0.353 µM)
MIC Enterococcus faecium (GC 2243) [1]: 0.5 µg/mL (≈ 0.353 µM)
MIC Enterococcus faecium (GC 4556) [1]: 0.5 µg/mL (≈ 0.353 µM)
MIC Enterococcus faecium (GC 4557) [1]: 0.5 µg/mL (≈ 0.353 µM)
MIC Enterococcus faecalis (ATCC 29212) ([1]; inoculum 5×10^5 CFU/mL, strain ATCC 29212): 0.5 µg/mL (≈ 0.353 µM)
MIC Enterococcus faecalis (GC 2242) ([1]; inoculum 5×10^5 CFU/mL, strain GC 2242): 0.5 µg/mL (≈ 0.353 µM)
MIC Enterococcus faecium (GC 2243) ([1]; inoculum 5×10^5 CFU/mL, strain GC 2243): 0.5 µg/mL (≈ 0.353 µM)
MIC Enterococcus faecalis (GC 2691) ([1]; inoculum 5×10^5 CFU/mL, strain GC 2691): 0.5 µg/mL (≈ 0.353 µM)
MIC Enterococcus faecalis (GC 3059) ([1]; inoculum 5×10^5 CFU/mL, strain GC 3059): 0.5 µg/mL (≈ 0.353 µM)
MIC Enterococcus faecalis (GC 4552) ([1]; inoculum 5×10^5 CFU/mL, strain GC 4552): 0.5 µg/mL (≈ 0.353 µM)
MIC Enterococcus faecalis (GC 4553) ([1]; inoculum 5×10^5 CFU/mL, strain GC 4553): 0.5 µg/mL (≈ 0.353 µM)
MIC Enterococcus faecalis (GC 4554) ([1]; inoculum 5×10^5 CFU/mL, strain GC 4554): 0.5 µg/mL (≈ 0.353 µM)
MIC Enterococcus faecium (GC 4556) ([1]; inoculum 5×10^5 CFU/mL, strain GC 4556): 0.5 µg/mL (≈ 0.353 µM)
MIC Enterococcus faecium (GC 4557) ([1]; inoculum 5×10^5 CFU/mL, strain GC 4557): 0.5 µg/mL (≈ 0.353 µM)
MIC Enterococcus avium (GC 4558) ([1]; inoculum 5×10^5 CFU/mL, strain GC 4558): 0.5 µg/mL (≈ 0.353 µM)
MIC Enterococcus faecalis (GC 6189) ([1]; inoculum 5×10^5 CFU/mL, strain GC 6189): 0.5 µg/mL (≈ 0.353 µM)
MIC Staphylococcus aureus (GC 1131) ([2]; inoculum 5×10^5 CFU/mL): 0.5 µg/mL (≈ 0.353 µM)
MIC Staphylococcus aureus (ATCC 29213) ([2]; strain ATCC 29213): 0.5 µg/mL (≈ 0.353 µM)
MIC Staphylococcus aureus (GC 1131) [2]: 0.5 µg/mL (≈ 0.353 µM)
MIC Staphylococcus aureus (GC 3051) ([2]; strain GC 3051): 0.5 µg/mL (≈ 0.353 µM)
MIC Staphylococcus aureus (GC 3053) ([2]; strain GC 3053): 0.5 µg/mL (≈ 0.353 µM)
MIC Staphylococcus aureus (GC 4541) ([2]; strain GC 4541): 0.5 µg/mL (≈ 0.353 µM)
MIC Staphylococcus aureus (GC 4542) ([2]; strain GC 4542): 0.5 µg/mL (≈ 0.353 µM)
MIC Staphylococcus aureus-SMITH (GC 4543) ([2]; strain GC 4543): 0.5 µg/mL (≈ 0.353 µM)
MIC Staphylococcus aureus (GC 4544) ([2]; strain GC 4544): 0.5 µg/mL (≈ 0.353 µM)
MIC Staphylococcus aureus (GC 4545) ([2]; strain GC 4545): 0.5 µg/mL (≈ 0.353 µM)
MIC Coagulase Negative Staphylococcus (GC 4547) ([2]; strain GC 4547): 4 µg/mL (≈ 2.82 µM)
MIC Coagulase Negative Staphylococcus (GC 4548) ([2]; strain GC 4548): 2 µg/mL (≈ 1.41 µM)
MIC Coagulase Negative Staphylococcus (GC 4549) ([2]; strain GC 4549): 1 µg/mL (≈ 0.705 µM)
MIC Coagulase Negative Staphylococcus (GC 4551) ([2]; strain GC 4551): 4 µg/mL (≈ 2.82 µM)
MIC Coagulase Negative Staphylococcus (GC 6257) ([2]; strain GC 6257): 2 µg/mL (≈ 1.41 µM)
MIC Streptococcus agalactiae (GC 4564) [3]: 0.5 µg/mL (≈ 0.353 µM)
MIC Streptococcus pneumoniae (ATCC 6301) [3]: 0.12 µg/mL (≈ 0.0846 µM)
MIC Streptococcus pneumoniae (GC 1894) [3]: 0.12 µg/mL (≈ 0.0846 µM)
MIC Streptococcus pneumoniae (GC 4565) [3]: 0.12 µg/mL (≈ 0.0846 µM)
MIC Streptococcus pyogenes (GC 4563) [3]: 0.12 µg/mL (≈ 0.0846 µM)
MIC Streptococcus pneumoniae (ATCC 6301) ([3]; inoculum 5×10^5 CFU/mL, strain ATCC 6301): 0.12 µg/mL (≈ 0.0846 µM)
MIC Streptococcus pneumoniae (GC 1894) ([3]; inoculum 5×10^5 CFU/mL, strain GC 1894): 0.12 µg/mL (≈ 0.0846 µM)
MIC Streptococcus pyogenes (GC 4563) ([3]; inoculum 5×10^5 CFU/mL, strain GC 4563): 0.12 µg/mL (≈ 0.0846 µM)
MIC Streptococcus agalactiae (GC 4564) ([3]; inoculum 5×10^5 CFU/mL, strain GC 4564): 0.5 µg/mL (≈ 0.353 µM)
MIC Streptococcus pneumoniae (GC 4565) ([3]; inoculum 5×10^5 CFU/mL, strain GC 4565): 0.12 µg/mL (≈ 0.0846 µM)
MIC Escherichia coli (ATCC 25922) [4]: >0.5 µg/mL
MIC Escherichia coli (GC 4559) [4]: >0.5 µg/mL
MIC Escherichia coli (GC 4560) [4]: 0.5 µg/mL (≈ 0.353 µM)
SMILES: CC(c1ccc(Cl)cc1)C1NC(=O)CNC(=O)C(CO)NC(=O)C(C(O)C2CNC(=N)N2C2OC(CO)C(O)C(O)C2O)NC(=O)C(C(O)C2CNC(=N)N2)NC(=O)C(Cc2ccc(OC3OC(CO)C(OC4OC5COC(c6ccccc6)OC5C(O)C4O)C(O)C3O)cc2)NC1=O (centres unmarked) [Example 195]
MIC Staphylococcus haemolyticus (GC 4546) ([2]; strain GC 4546): 2 µg/mL (≈ 1.41 µM)
